Assay [1] deals with substance-P induced relaxation of the pig coronary arteries. Put plainly: Antagonism of substance-P induced relaxation of the pig coronary arteries. It counts as cell-based. The conditions noted are these: concentration at which 50% of the response to 10^−9 M substance P was inhibited, 30 minutes incubation, prostaglandin F2a precontracted segments. From the text: (§1) The compounds of the present invention are potent inhibitors of neurokinin-mediated effects, in particular those mediated via the NK1 receptor, and may therefore be described as tachykinin antagonists, especially as substance P antagonists, as indicated in vitro by the antagonism of substance P induced relaxation of pig coronary arteries which is described hereinafter. The binding affinity of the present compounds for the human, guinea-pig and gerbil neurokinin receptors may be determined in vitro in a receptor binding test using ^3H-substance-P as radioligand. The subject compounds also show substance-P antagonistic activity in vivo as may be evidenced by, for instance, the antagonism of substance P-induced plasma extravasation in guinea-pigs, or the antagonism of drug-induced emesis in ferrets (Watson et al., Br. J. Pharmacol. 115, 84-94, 1995).
Antagonism of substance-P induced relaxation of the pig coronary arteries
Segments of coronary artieries taken from pigs (killed by injection of an overdose of sodium pentobarbital) were inverted and mounted for recordign of isometric tension in organ baths (volume 20 ml) with the endothelium at the outside. The preparations were bathed in Krebs-Henseleit solution. The solution was kept at 37° C. and gassed with a mixture of O2/CO2 (95/5). After stabilisation of the preparations, prostaglandin F2a (10^−5 M) was administered to induce a contraction. This was repeated until contractivle responses became stable. Then prostaglandin F2a was again administered and substance P(3×10^−10 M and 10^−9 M cumulatively) was added. Substance P induced endothelium dependent relaxations. After washing away the agonists, a known concentratin of a compound of formula (I) was added. After an incubation period of 30 minutes, prostaglandin F2a ([…]) and the same concentrations of sbustance P as described above were again administered in the presence of the compound to be tested. Relaxations caused by substance P were expressed as relaxations under control conditions, and percent inhibition of the response to […] substance P was taken as a measure of the antagonistic activity of the compound to be tested. Table 6 lists the IC50 values (concentration at which 50% of the response to […] substance P was inhibited by the test compound) for the tested compounds.

Assay [2] deals with substance P induced plasma extravasation. Put plainly: Antagonism of substance P induced plasma extravasation in guinea-pigs. Type of assay: in vivo. The conditions noted are these: lowest active dose, female guinea-pigs; for LAD nose: compound 1 hour prior to substance P (2 mg/kg, femoral artery), blue colouring of nose 10 minutes after challenge; for LAD conjunctiva / LAD forepaws / LAD trachea / LAD urinary bladder: compound 1 hour prior to substance P; for LAD conjunctiva: blue colouring of conjunctiva 10 minutes after challenge; for LAD forepaws: blue colouring of forepaws 10 minutes after challenge; for LAD trachea: blue colouring of trachea 30 minutes after challenge; for LAD urinary bladder: blue colouring of urinary bladder 30 minutes after challenge.
Excerpt: as §1
Antagonism of substance P induced plasma extravasation in guinea-pigs
Plasma extravasation was induced by injection of substance P (2 mg/kg) in the femoral artery of female guinea-pigs. Evans Blue dye (30 mg/kg) was injected simultaneously. The test compound or solvent was administered 1 hour prior to substance P injection. 10 minutes after challenge, the aminals were checked for blue colouring (a direct measure for plasma extravasation) of the nose, the forepaws, and the conjectiva. 30 minutes after challenge, the animals were sacrificed by CO2 gas inhalation and checked for blue colouring of the trachea and the urinary bladder. […]

In the case of `Cc1cccc(C)c1NC(=O)CN1CCN([C@H]2CCN(C(=O)c3cc(C(F)(F)F)cc(C(F)(F)F)c3)[C@@H](Cc3cc(F)cc(F)c3)C2)CC1` (racemic) [Compound 132, (±)-cis-4-[1-[3,5-bis (trifluoromethyl)benzoyl]-2-[(3,5-difluorophenyl)methyl]-4-piperidinyl]-N-(2,6-dimethylphenyl)-1-piperazineacetamide], the IC50 (usually the concentration that gives 50% inhibition) in assay [1] (Sus scrofa, 0.5 h) was 2.08 nM. For the same compound, in assay [2], the LAD nose is on record as 10.0 mg/kg, the LAD conjunctiva is 10.0 mg/kg, the LAD forepaws was 10.0 mg/kg and the LAD trachea is given as 10.0 mg/kg. Further, the LAD urinary bladder in assay [2] was 10.0 mg/kg.
`Cc1cccc(C)c1NC(=O)CN1CCN(C2CCN(C(=O)c3cc(C(F)(F)F)cc(C(F)(F)F)c3)C(Cc3ccc(F)c(F)c3)C2)CC1` (racemic) [Compound 135] came in with a concentration for half-maximal inhibition (IC50) in assay [1] of 0.01 nM. In assay [2], the LAD nose was 0.63 mg/kg, the LAD conjunctiva worked out at 0.63 mg/kg, the LAD forepaws was 0.63 mg/kg and the LAD trachea is 2.50 mg/kg. Besides, in assay [2], the LAD urinary bladder was greater than 40 mg/kg.
As to “(+)-(B)-trans-4-[1-[3,5-bis(trifluoromethyl)benzoyl]-2-(phenylmethyl)-4-piperidinyl]-N-(2,6-dimethylphenyl)-1- piperazine acetamide [Compound 27]”, in assay [1], the IC50 is 0.13 nM. Further, in assay [2], the LAD nose is 0.63 mg/kg, the LAD conjunctiva turned out to be 0.63 mg/kg, the LAD forepaws was 0.63 mg/kg and the LAD trachea is on record as 0.63 mg/kg. Further, in assay [2], the LAD urinary bladder is on record as 0.63 mg/kg.
In assay [1], `Cc1cc(C)cc(NC(=O)CN2CCN(C3CCN(C(=O)c4cc(C(F)(F)F)cc(C(F)(F)F)c4)C(Cc4ccccc4)C3)CC2)c1` (stereo not drawn) [Compound 50] registered an IC50 of 2.43 nM. In assay [2], this compound registered an LAD nose of 10.0 mg/kg, an LAD conjunctiva of 10.0 mg/kg, an LAD forepaws of 10.0 mg/kg and an LAD trachea of 10.0 mg/kg. The compound also yielded an LAD urinary bladder in assay [2] greater than 40 mg/kg.
In turn, `Cc1cccc(C)c1NC(=O)CN1CCN(C2CCN(C(=O)c3cc(C(F)(F)F)cc(C(F)(F)F)c3)C(Cc3ccccc3)C2)CC1` (single isomer, unassigned) [Compound 42] gave an IC50 in assay [1] of 0.93 nM. In addition, in assay [2], the LAD nose is listed as 1.25 mg/kg, the LAD conjunctiva came out at 2.50 mg/kg, the LAD forepaws was 1.25 mg/kg and the LAD trachea is 5.00 mg/kg. The compound further showed an LAD urinary bladder in assay [2] of 5.00 mg/kg.
`Cc1ncc(Cn2c(N3CCN([C@H]4CCN(C(=O)c5cc(C(F)(F)F)cc(C(F)(F)F)c5)[C@@H](Cc5ccccc5)C4)CC3)nc3ccccc32)o1` (racemic) [Compound 70, (±)-cis-1-[3,5-bis(trifluoromethyl)benzoyl]-4-[4-[1-[(2-methyl-5-oxazolyl)methyl]-1H-benzimidazol-2-yl]-1-piperazinyl]-2-(phenylmethyl)piperidine]: the IC50 in assay [1] (Sus scrofa, 0.5 h) came to 0.29 nM. In assay [2], this compound came in with an LAD nose of 10.0 mg/kg, an LAD conjunctiva of 10.0 mg/kg, an LAD forepaws of 10.0 mg/kg and an LAD trachea of 10.0 mg/kg. Also, the LAD urinary bladder in assay [2] worked out at 10.0 mg/kg.
`CCOCCn1c(N2CCN(C3CCN(C(=O)c4cc(C(F)(F)F)cc(C(F)(F)F)c4)C(Cc4ccccc4)C3)CC2)nc2ccccc21` (stereo not drawn) [Compound 22] showed a half-maximal inhibitory concentration (IC50) in assay [1] of 0.37 nM. In assay [2], this compound had an LAD nose of 2.50 mg/kg, an LAD conjunctiva of 2.50 mg/kg, an LAD forepaws of 2.50 mg/kg and an LAD trachea of 10.0 mg/kg. Further, the LAD urinary bladder in assay [2] is given as greater than 40 mg/kg.
Consider `Cc1cccc(C)c1NC(=O)CN1CCN([C@@H]2CCN(C(=O)c3cc(C(F)(F)F)cc(C(F)(F)F)c3)[C@@H](Cc3ccc(Cl)c(Cl)c3)C2)CC1` (racemic) [Compound 139, (±)-trans-4-[1-[3,5-bis(trifluoromethyl)benzoyl]-2-[(3,4-dichlorophenyl)methyl]-4-piperidinyl]-N-(2,6-dimethylphenyl)-1-piperazineacetamide], for which it took 0.13 nM to reach half-maximal inhibition in assay [1] (Sus scrofa, 0.5 h) (IC50). In addition, in assay [2], the LAD nose is 2.50 mg/kg, the LAD conjunctiva is recorded as 2.50 mg/kg, the LAD forepaws is listed as 2.50 mg/kg and the LAD trachea worked out at 2.50 mg/kg. In assay [2], this compound came in with an LAD urinary bladder of 2.50 mg/kg.
In turn, `COc1ccccc1NC(=O)CN1CCN(C2CCN(C(=O)c3cc(C(F)(F)F)cc(C(F)(F)F)c3)C(Cc3ccccc3)C2)CC1` (stereo not drawn) [Compound 38] came in with an IC50 in assay [1] of 0.86 nM. In assay [2], the LAD nose was 10.0 mg/kg, the LAD conjunctiva is 10.0 mg/kg, the LAD forepaws was 10.0 mg/kg and the LAD trachea is greater than 40 mg/kg. Moreover, the LAD urinary bladder in assay [2] was greater than 40 mg/kg.
On to `Cc1cccc(C)c1NC(=O)CN1CCN(C2CCN(C(=O)c3cc(C(F)(F)F)cc(C(F)(F)F)c3)C(Cc3ccc(C(F)(F)F)cc3)C2)CC1` (single isomer, unassigned) [Compound 137], for which 0.23 nM corresponded to half-maximal inhibition in assay [1] (IC50). In assay [2], this compound yielded an LAD nose of 2.50 mg/kg, an LAD conjunctiva of 2.50 mg/kg, an LAD forepaws of 2.50 mg/kg and an LAD trachea of 2.50 mg/kg. The same compound had an LAD urinary bladder in assay [2] of 2.50 mg/kg.
In the case of `COc1ccccc1N1CCN(C2CCN(C(=O)c3cc(C(F)(F)F)cc(C(F)(F)F)c3)C(Cc3ccccc3)C2)CC1` (racemic) [Compound 56], the IC50 in assay [1] was 3.25 nM. In assay [2], this compound had an LAD nose of 10.0 mg/kg, an LAD conjunctiva of 10.0 mg/kg, an LAD forepaws of 10.0 mg/kg and an LAD trachea of 40.0 mg/kg. In addition, the LAD urinary bladder in assay [2] is 2.50 mg/kg.
With `O=C(CN1CCN(C2CCN(C(=O)c3cc(C(F)(F)F)cc(C(F)(F)F)c3)C(Cc3ccccc3)C2)CC1)N1CCCc2ccccc21` (racemic) [Compound 101], the IC50 in assay [1] was 0.75 nM. For the same compound, in assay [2], the LAD nose amounted to 10.0 mg/kg, the LAD conjunctiva is given as 10.0 mg/kg, the LAD forepaws was 10.0 mg/kg and the LAD trachea is listed as greater than 40 mg/kg. The compound also gave an LAD urinary bladder in assay [2] greater than 40 mg/kg.
`Cc1ncc(CN2CCN(C3CCN(C(=O)c4cc(C(F)(F)F)cc(C(F)(F)F)c4)C(Cc4ccccc4)C3)CC2)o1` (racemic) [Compound 119] came in with an IC50 in assay [1] of 2.81 nM. In assay [2], this compound displayed an LAD nose of 2.50 mg/kg, an LAD conjunctiva of 2.50 mg/kg, an LAD forepaws of 2.50 mg/kg and an LAD trachea of 10.0 mg/kg. This compound had an LAD urinary bladder in assay [2] greater than 40 mg/kg.
`O=C(C(c1ccccc1)N1CCN(C2CCN(C(=O)c3cc(C(F)(F)F)cc(C(F)(F)F)c3)C(Cc3ccccc3)C2)CC1)N1CCCC1` (mixture of isomers) [Compound 46] showed an IC50 in assay [1] of 0.42 nM. Further, in assay [2], the LAD nose is recorded as 0.63 mg/kg, the LAD conjunctiva came to 0.63 mg/kg, the LAD forepaws amounted to 0.63 mg/kg and the LAD trachea was greater than 40 mg/kg. This compound also came in with an LAD urinary bladder in assay [2] of 0.63 mg/kg.
The compound `Cc1cccc(C)c1NC(=O)CN1CCN(C2CCN(C(=O)c3cc(C(F)(F)F)cc(C(F)(F)F)c3)C(Cc3ccc(Cl)c(Cl)c3)C2)CC1` (racemic) [Compound 138] returned an IC50 in assay [1] of 0.16 nM. In assay [2], this compound registered an LAD nose of 2.50 mg/kg, an LAD conjunctiva of 2.50 mg/kg, an LAD forepaws of 2.50 mg/kg and an LAD trachea of 10.0 mg/kg. Further, the LAD urinary bladder in assay [2] was greater than 40 mg/kg.

For the origin of these results see patent USRE37886E1, “1-(1,2-Disubstituted piperidinyl)-4-substituted piperazine derivatives” (Janssen Pharmaceuticals, N.V., priority 1995, dated 2002).
